“And” between values parts separate entries of the source, which are not always exact repeats. Equal entries are not always repeated.
Tests used:
Settings in all cases: 48 h
CU-ACC1 [1] = assay: AC50 viability; higher = less potent
Procedure, shortened: (§1)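 Library compounds were tested at 11 concentrations against three adrenocortical carcinoma cell lines in 1,536-well plates. CellTiter-Glo luminescence was read after 48 h and normalised per plate to vehicle and empty-well controls. Only inhibitory or non-responding curve classes from fitted concentration-response curves contributed AC50 and area under the curve.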

CU-ACC2 [2] = assay: AC50 viability; higher = less potent
Procedure, shortened: as §1

NCI-H295R [3] = assay: AC50 viability; higher = less potent
Procedure, shortened: as §1

CU-ACC1 [4] = assay: area under concentration-response curve (viability) (AUC (a.u.)); higher = less active
Procedure, shortened: as §1

CU-ACC2 [5] = assay: as above
Procedure, shortened: as §1

NCI-H295R [6] = assay: as above
Procedure, shortened: as §1

Structure (SMILES)	AC50 viability (CU-ACC1 [1])	AC50 viability (CU-ACC2 [2])	AC50 viability (NCI-H295R [3])	area under concentration-response curve (CU-ACC1 [4])	area under concentration-response curve (CU-ACC2 [5])	area under concentration-response curve (NCI-H295R [6])
CC(C)(O)c1cc2nc(-c3cnc(N)nc3)nc(N3CCOCC3)c2s1	1.32 µM	2.63 µM	1.05 µM	434	379	423
CNCCCOc1cc(F)c(-c2c(Cl)nc3ncnn3c2N[C@@H](C)C(F)(F)F)c(F)c1	5.25 µM	10.5 µM	0.148 µM	456	403	397
C[C@@H](NC(=O)c1ncnc(N)c1Cl)c1ncc(C(=O)Nc2cc(C(F)(F)F)c(Cl)cn2)s1	18.6 µM	18.6 µM	18.6 µM	295	316	318
COc1cc(N2CCN(C)CC2)ccc1Nc1nccc(-c2cn(C)c3cnccc23)n1	33.2 µM	18.6 µM	20.9 µM	451	507	464
COc1cc(N2CCC(N3CCN(C)CC3)CC2)ccc1Nc1ncc(Cl)c(Nc2ccccc2P(C)(C)=O)n1	2.09 µM	1.32 µM	2.63 µM	383	398	409
COc1ccc(N2C(=O)N(c3c(C)cccc3Cl)Cc3cnc(Nc4ccc(C5CCN(C)CC5)cc4OC)nc32)nc1	18.6 µM	18.6 µM	14.8 µM	451	511	490
C[C@H]1COCCN1c1cc(C2([S+](=O)([O-])C3CC3)CC2)nc(-c2ccc(NC(=S)NCCO)cc2)n1	0.295 µM	0.525 µM	0.661 µM	325	394	366
Oc1ccc(-c2ccc(-c3cc(Nc4cccc(CNC5CC5)c4)[nH]n3)cc2)c(O)c1	14.8 µM	10.5 µM	18.6 µM	498	556	531
CCCCNc1ncc2c(-c3ccc(CN4CCN(C)CC4)cc3)cn([C@H]3CC[C@H](O)CC3)c2n1	16.6 µM	7.42 µM	10.5 µM	476	544	481
COc1cccc2c1C(=O)c1c(O)c3c(c(O)c1C2=O)C[C@@](O)(C(=O)CO)C[C@@H]3O[C@H]1C[C@H](N)[C@H](O[C@H]2CCCCO2)[C@H](C)O1	5.25 µM and 9.34 µM	6.61 µM	20.9 µM	230 and 410	168 and 501	435
COc1ccc(-c2cc(C(O)C3CCCCN3)c3ccccc3n2)cc1 (stereo unspecified)	10.5 µM	14.8 µM	7.42 µM	432	377	455
C[C@@H](Oc1cc(-n2cnc3ccc(CN4CCN(C)CC4)cc32)sc1C(N)=O)c1ccccc1C(F)(F)F	11.8 µM	16.6 µM	11.8 µM	471	540	446
Cc1cc(O[C@@H](CCC(F)(F)F)c2ccc(C(=O)NCCC(=O)O)cc2)cc(C)c1-c1ccc(C(C)(C)C)cc1	18.6 µM	23.5 µM	11.8 µM	382	409	384
C=CC(=O)Nc1cc2c(Nc3ccc(F)c(Cl)c3)ncnc2cc1OCCCN1CCOCC1	11.8 µM	8.33 µM	14.8 µM	443	498	427
CC(=O)O/N=C1\C(=O)N(Cc2cc(Cl)ccc2Cl)c2ccc(Cl)cc21	2.09 µM	7.42 µM	13.2 µM	448	382	504
COc1cc(N2CCC(N3CCN(C)CC3)CC2)ccc1Nc1ncc(Cl)c(Nc2ccccc2[S+](=O)([O-])C(C)C)n1	11.8 µM	5.25 µM	2.95 µM	436	479	432
CS[C@H]1SC[C@@H]2C(=O)N(C)[C@H](C(C)C)C(=O)OC[C@H](NC(=O)c3cnc4ccccc4n3)C(=O)N[C@H](C)C(=O)N(C)[C@H]1C(=O)N(C)[C@H](C(C)C)C(=O)OC[C@H](NC(=O)c1cnc3ccccc3n1)C(=O)N[C@H](C)C(=O)N2C	0.00934 µM	0.0209 µM	0.0833 µM	152	235	320
COc1ccc(Nc2cc(-c3cnc(N)nc3)nc(N3CCOCC3)n2)cn1	1.05 µM	1.05 µM	1.66 µM	413	493	392
Cc1ccc(NC(=O)c2ccc3c(c2)OCCO3)cc1NC(=O)c1ccc2nc(OCCN3CCCC3)ccc2c1	6.45 µM	0.456 µM	2.88 µM	303	373	398
Cc1ccc(C(=O)Nc2ccc(CN3CCN(C)CC3)c(C(F)(F)F)c2)cc1C#Cc1cnc2cccnn12	7.42 µM	9.34 µM	7.42 µM	402	524	487
C=C1CC[C@@H]2[C@](C)(CO)[C@H](O)CC[C@@]2(C)[C@@H]1C/C=C1/C(=O)OC[C@H]1O	11.8 µM	5.9 µM	16.6 µM	334	388	372
O=C(CCCCCCC(=O)N/N=C/c1ccc(N(c2ccccc2)c2ccccc2)cc1)NO	6.61 µM	10.5 µM	1.18 µM	381	371	382
CCCCC(=O)OCC(=O)[C@]1(O)Cc2c(O)c3c(c(O)c2[C@@H](O[C@H]2C[C@H](NC(=O)C(F)(F)F)[C@H](O)[C@H](C)O2)C1)C(=O)c1c(OC)cccc1C3=O	7.42 µM	9.34 µM	16.6 µM	373	544	537
C[C@@H]1C[C@@H]([C@H](O)CC2CC(=O)NC(=O)C2)C(=O)[C@@H](C)C1	1.05 µM	0.59 µM	2.95 µM	345	333	405
CN(C)C/C=C/C(=O)Nc1ccc(C(=O)Nc2cccc(Nc3ncc(Cl)c(-c4c[nH]c5ccccc45)n3)c2)cc1	0.661 µM	0.332 µM	1.48 µM	363	275	406
Cc1ccc2nc(NCCN)c3ncc(C)n3c2c1	14.8 µM	10.5 µM	14.8 µM	413	369	423

Structure (SMILES)	AC50 viability (CU-ACC1 [1])	AC50 viability (CU-ACC2 [2])	AC50 viability (NCI-H295R [3])	area under concentration-response curve (CU-ACC1 [4])	area under concentration-response curve (CU-ACC2 [5])	area under concentration-response curve (NCI-H295R [6])
CCC(C1CCC(C)C(O1)C(C)C(O)C(C)C(=O)C(CC)C2OC\3(O[C@]4(CC[C@@](C)(O4)C5CC[C@@](O)(CC)C(C)O5)C(O)\C=C3)C(C)CC2C)C([O-])=O (stereo partly specified)	5.25 µM	5.9 µM	8.33 µM	291	473	456
Nc1ccccc1NC(=O)c1ccc(CNC(=O)OCc2cccnc2)cc1	3.72 µM	14.8 µM	3.72 µM	422	523	440
CC(C)[C@@H](N(CCCN)C(=O)C1=CC=C(C)C=C1)C/2=N/C3=CC(=CC=C3C(=O)N2CC4=CC=CC=C4)Cl	20.9 µM	26.3 µM	5.9 µM	440	567	410
COc1cc2c(Nc3ccc(Cl)c(Cl)c3F)ncnc2cc1OC[C@@H]1C[C@@H]2CN(C)C[C@@H]2C1	16.6 µM	10.5 µM	16.6 µM	397	515	483
CC/1=C/C[C@]23O[C@@]2(C)CC[C@@H]4[C@H](OC(=O)C4=C)[C@@H]13	14.8 µM	16.6 µM	18.6 µM	447	509	435
Nc1ncnc2c1c(-c1cnc3[nH]ccc3c1)nn2C1CCCC1	5.9 µM	13.2 µM	5.9 µM	395	338	414
COc1ccc(CNC(=O)Nc2ncc([N+](=O)[O-])s2)cc1	29.5 µM	18.6 µM	23.5 µM	394	400	410
COc1cc(OCc2cccc(-c3ccccc3)c2C)cc(OC)c1CN1CCCC[C@H]1C(=O)O	16.6 µM	20.9 µM	18.6 µM	444	546	514
Nc1nc(Nc2ccc([S+](N)(=O)[O-])cc2)nn1C(=O)c1c(F)cccc1F	11.8 µM	3.32 µM	20.9 µM	443	466	488
Nc1ccccc1NC(=O)c1ccc(CNc2nccc(-c3cccnc3)n2)cc1	2.09 µM	5.25 µM	2.35 µM	309	445	339
O=C(NO)c1cnc(NC2(c3ccccc3)CC2)nc1	11.8 µM	16.6 µM	5.25 µM	423	499	465
C=CC(=O)Nc1cccc(Nc2nc(Nc3ccc(Oc4ccnc(C(=O)NC)c4)cc3)ncc2F)c1	29.5 µM	23.5 µM	16.6 µM	464	596	467
C[S+](=O)([O-])N1CCC(NC(=O)c2[nH]ncc2NC(=O)c2c(Cl)cccc2Cl)CC1	7.42 µM	2.63 µM	14.8 µM	428	488	426
CN1CCC(CNc2ccc3ncc(-c4cccc(OC(F)(F)F)c4)n3n2)CC1	7.42 µM	13.2 µM	9.34 µM	413	460	416
CN(C)C/C=C/C(=O)Nc1cc2c(Nc3ccc(F)c(Cl)c3)ncnc2cc1O[C@H]1CCOC1	4.68 µM	0.661 µM	1.32 µM	231	238	232
CC(C)C[C@H](NC(=O)[C@H](CCc1ccccc1)NC(=O)CN1CCOCC1)C(=O)N[C@@H](Cc1ccccc1)C(=O)N[C@@H](CC(C)C)C(=O)[C@@]1(C)CO1	0.186 µM	0.0235 µM	0.166 µM	302	256	359
O=C(c1ccc(Nc2nccc(-c3cc4ccccc4s3)n2)cc1)N1CCC(N2CCCC2)CC1	9.34 µM	7.42 µM	6.61 µM	446	521	462
c1ccc(-c2ccc(CNc3nc(-c4ccccn4)nnc3-c3ccccc3)cc2)cc1	2.35 µM	14.8 µM	4.17 µM	385	504	461
CC1(N2CCC(n3c([C@@H]4CCCNC4)nc4ccccc43)CC2)CCCCCCC1	10.5 µM	13.2 µM	11.8 µM	470	562	439
CN(C)Cc1c(C(=O)NCCOc2ccc(C(=O)NO)cc2)oc2ccccc12	1.48 µM	1.48 µM	1.32 µM	412	425	412
O=C(Nc1cc(C(F)(F)F)cc(C(F)(F)F)c1)c1cc(Cl)ccc1O	2.63 µM	1.86 µM	2.95 µM	429	493	463
COc1ccc(-c2cc3c(C)nc(N)nc3n([C@H]3CC[C@H](OCCO)CC3)c2=O)cn1	0.295 µM	0.59 µM	0.235 µM	425	446	435
CCN1CCN(C(=O)Cc2ccc(Nc3ncc(F)c(Nc4ccc(C(=O)Nc5ccccc5Cl)cc4)n3)cc2)CC1	9.34 µM	8.33 µM	7.42 µM	412	490	389
CNC(=O)c1cc(Oc2ccc(NC(=O)Nc3ccc(Cl)c(C(F)(F)F)c3)cc2)ccn1	18.6 µM	23.5 µM	18.6 µM	518	521	539
COC1=CC=C(C(=C1)OC(C)C)C/2=N/[C@@H]([C@@H](N2C(=O)N3CCNC(=O)C3)C4=CC=C(Cl)C=C4)C5=CC=C(Cl)C=C5	11.8 µM	14.8 µM	10.5 µM	290	291	288
